Test results as given in EP0908457B1, “3-(1,2-benzisothiazol- and isoxazol-5-Y1)-2,4(1H,3H)-pyrimidinedione or thione and 3-(1,2-benzisothiazol- and isoxazol-5-y1)-4(3H)-pyrimidinone or thione herbicidal agents” (BASF AKTIENGESELLSCHAFT, priority 1997, dated 1999).

What was measured:
[1] = system: Echinochloa oryzoides (Ard.) Fritsch.; assay: Preemergence weed control under flooded paddy conditions, ECHORC (Watergrass (Calif.)); type: in vivo; conditions: flooded paddy; as to herbicidal effect rating, ECHORC: meaning of each grade not given here
[2] = system: Oryza sativa, (L.) Tebonnet; assay: Rice tolerance to post-transplant applications under flooded paddy conditions (Example 187), ORYSAT (Rice, Tebonnet); as to herbicidal effect rating ORYSAT: meaning of each grade not given here
[3] = system: Cyperus serotinus, Rottb.; assay: Preemergence weed control under flooded paddy conditions, CYPSE (Flatsedge); type: in vivo; as to herbicidal effect rating, CYPSE: meaning of each grade not given here
[4] = system: Monochoria vaginalis, Presl.; assay: Preemergence weed control under flooded paddy conditions, MOOVA (Monochoria); type: in vivo; conditions: flooded paddy; as to herbicidal effect rating, MOOVA: meaning of each grade not given here
Cyperus iria = assay: Preemergence weed control under flooded paddy conditions, CYPIR (Rice Flatsedge); type: in vivo; conditions: flooded paddy; as to herbicidal effect rating, CYPIR: meaning of each grade not given here
Sagittaria pygmaea, L. = assay: Preemergence weed control under flooded paddy conditions, SAGPY (Arrowhead (Pygmaea)); type: in vivo; conditions: flooded paddy; as to herbicidal effect rating, SAGPY: meaning of each grade not given here
[5] = Rate 0.0313 kg/ha, preemergence, rated three to four weeks after treatment
[6] = Rate 0.0625 kg/ha, preemergence, rated three to four weeks after treatment
[7] = Rate 0.1250 kg/ha, preemergence, rated three to four weeks after treatment
[8] = Rate 0.2500 kg/ha, preemergence, rated three to four weeks after treatment
[9] = Rate 0.1250 kg/ha, rated three to four weeks after treatment
[10] = Rate 0.2500 kg/ha, rated three to four weeks after treatment
[11] = Rate 0.0620 kg/ha, preemergence, rated 3-4 weeks after treatment
[12] = Rate 0.1250 kg/ha, preemergence, rated 3-4 weeks after treatment
[13] = Rate 0.2500 kg/ha, preemergence, rated 3-4 weeks after treatment
[14] = Rate 0.5000 kg/ha, preemergence, rated 3-4 weeks after treatment
[15] = Rate 0.0620 kg/ha, rated 3-4 weeks after treatment
[16] = Rate 0.1250 kg/ha, rated 3-4 weeks after treatment
[17] = Rate 0.2500 kg/ha, rated 3-4 weeks after treatment
[18] = Rate 0.0320 kg/ha, preemergence weeds, rated three to four weeks after treatment
[19] = Rate 0.0620 kg/ha, preemergence weeds, rated three to four weeks after treatment
[20] = Rate 0.1250 kg/ha, preemergence weeds, rated three to four weeks after treatment
[21] = Rate 0.2500 kg/ha, preemergence weeds, rated three to four weeks after treatment
[22] = Rate 0.0320 kg/ha, rated three to four weeks after treatment
[23] = Rate 0.0620 kg/ha, rated three to four weeks after treatment
[24] = Rate 0.0320 kg/ha, preemergence, rated 3-4 weeks after treatment
[25] = Rate 0.0320 kg/ha, preemergence, rated three to four weeks after treatment
[26] = Rate 0.0620 kg/ha, preemergence, rated three to four weeks after treatment

Cn1c(C(F)(F)F)cc(=O)n(-c2ccc3snc(CO)c3c2)c1=O [Example 225, 3-[3-(Hydroxymethyl)-1,2-benzisothiazol-5-yl]-1-methyl-6-(trifluoromethyl)-2,4(1H,3H)-pyrimidinedione]
ECHORC herbicidal effect rating [1, 5]: 0.0 | ECHORC herbicidal effect rating [1, 6]: 2.0 | ECHORC herbicidal effect rating [1, 7]: 4.0 | ECHORC herbicidal effect rating [1, 8]: 7.0 | ORYSAT herbicidal effect rating ([2]; Rate 0.0313 kg/ha, rated three to four weeks after treatment): 3.0 | ORYSAT herbicidal effect rating ([2]; Rate 0.0625 kg/ha, rated three to four weeks after treatment): 4.0 | ORYSAT herbicidal effect rating [2, 9]: 6.0 | ORYSAT herbicidal effect rating [2, 10]: 7.0 | CYPSE herbicidal effect rating [3, 5]: 0.0 | CYPSE herbicidal effect rating [3, 6]: 0.0 | CYPSE herbicidal effect rating [3, 7]: 0.0 | CYPSE herbicidal effect rating [3, 8]: 0.0 | MOOVA herbicidal effect rating [4, 5]: 8.0 | MOOVA herbicidal effect rating [4, 6]: 8.0 | MOOVA herbicidal effect rating [4, 7]: 9.0 | MOOVA herbicidal effect rating [4, 8]: 9.0 | CYPIR herbicidal effect rating (Cyperus iria; [5]): 0.0 | CYPIR herbicidal effect rating (Cyperus iria; [6]): 0.0 | CYPIR herbicidal effect rating (Cyperus iria; [7]): 2.0 | CYPIR herbicidal effect rating (Cyperus iria; [8]): 7.0 | SAGPY herbicidal effect rating (Sagittaria pygmaea, L.; [5]): 0.0 | SAGPY herbicidal effect rating (Sagittaria pygmaea, L.; [6]): 0.0 | SAGPY herbicidal effect rating (Sagittaria pygmaea, L.; [7]): 0.0 | SAGPY herbicidal effect rating (Sagittaria pygmaea, L.; [8]): 0.0

CC(Oc1ccccc1-c1nsc2ccc(-n3c(=O)cc(C(F)(F)F)n(C)c3=O)cc12)C(=O)N(C)C (stereo not drawn) [Example 551, Propionamide, 2-{o-{5-[3,6-dihydro-3-methyl-2,6-dioxo-4-(trifluoromethyl)-1(2H)-pyrimidinyl]-1,2-benzisothiazol-3-yl}phenoxy}-N,N-dimethyl-]
herbicidal effect rating, ECHORC [1, 11]: 4.0 | herbicidal effect rating, ECHORC [1, 12]: 7.0 | herbicidal effect rating, ECHORC [1, 13]: 7.0 | herbicidal effect rating, ECHORC [1, 14]: 9.0 | herbicidal effect rating ORYSAT [2, 15]: 0.0 | herbicidal effect rating ORYSAT [2, 16]: 3.0 | herbicidal effect rating ORYSAT [2, 17]: 3.0 | herbicidal effect rating ORYSAT ([2]; Rate 0.5000 kg/ha, rated 3-4 weeks after treatment): 4.0 | herbicidal effect rating, CYPSE [3, 11]: 0.0 | herbicidal effect rating, CYPSE [3, 12]: 0.0 | herbicidal effect rating, CYPSE [3, 13]: 0.0 | herbicidal effect rating, CYPSE [3, 14]: 0.0 | herbicidal effect rating, MOOVA [4, 11]: 0.0 | herbicidal effect rating, MOOVA [4, 12]: 9.0 | herbicidal effect rating, MOOVA [4, 13]: 9.0 | herbicidal effect rating, MOOVA [4, 14]: 9.0 | herbicidal effect rating, CYPIR (Cyperus iria; [11]): 0.0 | herbicidal effect rating, CYPIR (Cyperus iria; [12]): 0.0 | herbicidal effect rating, CYPIR (Cyperus iria; [13]): 2.0 | herbicidal effect rating, CYPIR (Cyperus iria; [14]): 9.0 | herbicidal effect rating, SAGPY (Sagittaria pygmaea, L.; [11]): 0.0 | herbicidal effect rating, SAGPY (Sagittaria pygmaea, L.; [12]): 0.0 | herbicidal effect rating, SAGPY (Sagittaria pygmaea, L.; [13]): 0.0 | herbicidal effect rating, SAGPY (Sagittaria pygmaea, L.; [14]): 2.0

Cn1c(C(F)(F)F)cc(=O)n(-c2ccc3snc(C(=O)NS(=O)(=O)Cc4ccccc4)c3c2)c1=O [Example 341, 1,2-Benzisothiazole-3-carboxamide, N-(benzylsulfonyl)-5-[3,6-dihydro-3-methyl-2,6-dioxo-4-(trifluoromethyl)-1(2H)-pyrimidinyl]-]
herbicidal effect rating, ECHORC [1, 18]: 3.0 | herbicidal effect rating, ECHORC [1, 19]: 5.5 | herbicidal effect rating, ECHORC [1, 20]: 8.0 | herbicidal effect rating, ECHORC [1, 21]: 8.5 | herbicidal effect rating ORYSAT [2, 22]: 1.5 | herbicidal effect rating ORYSAT [2, 23]: 2.5 | herbicidal effect rating ORYSAT [2, 9]: 3.0 | herbicidal effect rating ORYSAT [2, 10]: 3.5 | herbicidal effect rating, CYPSE [3, 18]: 0.0 | herbicidal effect rating, CYPSE [3, 19]: 0.0 | herbicidal effect rating, CYPSE [3, 20]: 2.5 | herbicidal effect rating, CYPSE [3, 21]: 3.5 | herbicidal effect rating, MOOVA [4, 18]: 7.0 | herbicidal effect rating, MOOVA [4, 19]: 9.0 | herbicidal effect rating, MOOVA [4, 20]: 9.0 | herbicidal effect rating, MOOVA [4, 21]: 9.0 | herbicidal effect rating, CYPIR (Cyperus iria; [18]): 1.0 | herbicidal effect rating, CYPIR (Cyperus iria; [19]): 2.0 | herbicidal effect rating, CYPIR (Cyperus iria; [20]): 3.5 | herbicidal effect rating, CYPIR (Cyperus iria; [21]): 4.0 | herbicidal effect rating, SAGPY (Sagittaria pygmaea, L.; [18]): 1.0 | herbicidal effect rating, SAGPY (Sagittaria pygmaea, L.; [19]): 4.5 | herbicidal effect rating, SAGPY (Sagittaria pygmaea, L.; [20]): 4.5 | herbicidal effect rating, SAGPY (Sagittaria pygmaea, L.; [21]): 4.5

C=CCOCC(CC)(COCC=C)COC(=O)COc1ccc(C)cc1-c1nsc2ccc(-n3c(=O)cc(C(F)(F)F)n(C)c3=O)cc12 [Example 521, Acetic acid, {{2-{5-[3,6-dihydro-3-methyl-2,6-dioxo-4-(trifluoromethyl)-1(2H)-pyrimidinyl]-1,2-benzisothiazol-3-yl}-p-tolyl}oxy}-, 2,2-bis-[(allyloxy)methyl]butyl ester]
herbicidal effect rating, ECHORC [1, 24]: 2.0 | herbicidal effect rating, ECHORC [1, 11]: 2.0 | herbicidal effect rating, ECHORC [1, 12]: 4.0 | herbicidal effect rating, ECHORC [1, 13]: 4.0 | herbicidal effect rating ORYSAT ([2]; Rate 0.0320 kg/ha, rated 3-4 weeks after treatment): 0.0 | herbicidal effect rating ORYSAT [2, 15]: 0.0 | herbicidal effect rating ORYSAT [2, 16]: 0.0 | herbicidal effect rating ORYSAT [2, 17]: 0.0 | herbicidal effect rating, CYPSE [3, 24]: 0.0 | herbicidal effect rating, CYPSE [3, 11]: 0.0 | herbicidal effect rating, CYPSE [3, 12]: 0.0 | herbicidal effect rating, CYPSE [3, 13]: 0.0 | herbicidal effect rating, MOOVA [4, 24]: 6.0 | herbicidal effect rating, MOOVA [4, 11]: 9.0 | herbicidal effect rating, MOOVA [4, 12]: 9.0 | herbicidal effect rating, MOOVA [4, 13]: 9.0 | herbicidal effect rating, CYPIR (Cyperus iria; [24]): 0.0 | herbicidal effect rating, CYPIR (Cyperus iria; [11]): 0.0 | herbicidal effect rating, CYPIR (Cyperus iria; [12]): 0.0 | herbicidal effect rating, CYPIR (Cyperus iria; [13]): 2.0 | herbicidal effect rating, SAGPY (Sagittaria pygmaea, L.; [24]): 0.0 | herbicidal effect rating, SAGPY (Sagittaria pygmaea, L.; [11]): 0.0 | herbicidal effect rating, SAGPY (Sagittaria pygmaea, L.; [12]): 0.0 | herbicidal effect rating, SAGPY (Sagittaria pygmaea, L.; [13]): 0.0

COC(C)c1nsc2ccc(-n3c(=O)cc(C(F)(F)F)n(C)c3=O)cc12 (stereo not drawn) [Example 350, 2,4(1H,3H)-Pyrimidinedione, 3-[3-(1-methoxyethyl)-1,2-benzisothiazol-5-yl]-1-methyl-6-(trifluoromethyl)-]
herbicidal effect rating, ECHORC [1, 25]: 6.0 | herbicidal effect rating, ECHORC [1, 26]: 7.5 | herbicidal effect rating, ECHORC [1, 7]: 8.0 | herbicidal effect rating, ECHORC [1, 8]: 9.0 | herbicidal effect rating ORYSAT [2, 22]: 9.0 | herbicidal effect rating ORYSAT [2, 23]: 9.0 | herbicidal effect rating ORYSAT [2, 9]: 9.0 | herbicidal effect rating ORYSAT [2, 10]: 9.0 | herbicidal effect rating, CYPSE [3, 25]: 7.5 | herbicidal effect rating, CYPSE [3, 26]: 8.5 | herbicidal effect rating, CYPSE [3, 7]: 8.5 | herbicidal effect rating, CYPSE [3, 8]: 9.0 | herbicidal effect rating, MOOVA [4, 25]: 9.0 | herbicidal effect rating, MOOVA [4, 26]: 9.0 | herbicidal effect rating, MOOVA [4, 7]: 9.0 | herbicidal effect rating, MOOVA [4, 8]: 9.0 | herbicidal effect rating, CYPIR (Cyperus iria; [25]): 4.0 | herbicidal effect rating, CYPIR (Cyperus iria; [26]): 5.0 | herbicidal effect rating, CYPIR (Cyperus iria; [7]): 9.0 | herbicidal effect rating, CYPIR (Cyperus iria; [8]): 9.0 | herbicidal effect rating, SAGPY (Sagittaria pygmaea, L.; [25]): 5.5 | herbicidal effect rating, SAGPY (Sagittaria pygmaea, L.; [26]): 7.0 | herbicidal effect rating, SAGPY (Sagittaria pygmaea, L.; [7]): 7.5 | herbicidal effect rating, SAGPY (Sagittaria pygmaea, L.; [8]): 9.0
